We go through 35 compounds from patent US8008298B2, “Pyrrolopyrazine kinase inhibitors” (Roche Palo Alto, priority 2008, dated 2011).

SMILES strings stand for the structures.

For orientation: melting point means the temperature, or range, at which the solid turns liquid.

`CC(C)(C)C(=O)c1c[nH]c2ncc(-c3cccc(OCCN4CCOCC4)c3)nc12` [Example I-41, 2,2-Dimethyl-1-{2-[3-(2-morpholin-4-yl-ethoxy)-phenyl]-5H-pyrrolo[2,3-b]pyrazin-7-yl}-propan-1-one]: the melting point lay within 152.9 to 154.7 °C.

On to `CC(C)(C)OC(=O)N1CCN(c2cccc(-c3cnc4[nH]cc(C(=O)C(C)(C)C)c4n3)c2)CC1` [Example I-44, 4-{3-[7-(2,2-Dimethyl-propionyl)-5H-pyrrolo[2,3-b]pyrazin-2-yl]-phenyl}-piperazine-1-carboxylic acid tert-butyl ester], for which the melting point was 215.2 to 215.8 °C. To `CC(C)(C)C(=O)c1c[nH]c2ncc(-c3ccc(N4CCNCC4)cc3)nc12` [Example I-45, 2,2-Dimethyl-1-[2-(4-piperazin-1-yl-phenyl)-5H-pyrrolo[2,3-b]pyrazin-7-yl]-propan-1-one] belongs 234 to 246 °C. In the case of `CC(C)(C)C(=O)c1c[nH]c2ncc(-c3cccc(N4CCNCC4)c3)nc12` [Example I-46, 2,2-Dimethyl-1-[2-(3-piperazin-1-yl-phenyl)-5H-pyrrolo[2,3-b]pyrazin-7-yl]-propan-1-one] it was 216 to 222 °C; in that of `CC(=O)N1CCN(c2ccc(-c3cnc4[nH]cc(C(=O)C(C)(C)C)c4n3)cc2)CC1` [Example I-99, 1-{2-[4-(4-Acetyl-piperazin-1-yl)-phenyl]-5H-pyrrolo[2,3-b]pyrazin-7-yl}-2,2-dimethyl-propan-1-one], 266 to 267 °C; in that of `CC(=O)N1CCN(c2cccc(-c3cnc4[nH]cc(C(=O)C(C)(C)C)c4n3)c2)CC1` [Example I-100, 1-{2-[3-(4-Acetyl-piperazin-1-yl)-phenyl]-5H-pyrrolo[2,3-b]pyrazin-7-yl}-2,2-dimethyl-propan-1-one], 238 to 239 °C.

With `CC(C)(C)C(=O)c1c[nH]c2ncc(-c3cccc(-n4cccn4)c3)nc12` [Example I-115, 2,2-Dimethyl-1-[2-(3-pyrazol-1-yl-phenyl)-5H-pyrrolo[2,3-b]pyrazin-7-yl]-propan-1-one], the melting point lay in the range of 219.3 to 221.1 °C. For the compound `CC(C)(C)C(=O)c1c[nH]c2ncc(-c3cccc(-c4ccn[nH]4)c3)nc12` [Example I-126, 2,2-Dimethyl-1-{2-[3-(2H-pyrazol-3-yl)-phenyl]-5H-pyrrolo[2,3-b]pyrazin-7-yl}-propan-1-one], the melting point lay in the range of 277 to 278 °C. `CNC(=O)c1cccc(-c2cnc3[nH]cc(C(=O)C(C)(C)C)c3n2)c1` [Example I-129, 3-[7-(2,2-Dimethyl-propionyl)-5H-pyrrolo[2,3-b]pyrazin-2-yl]-N-methyl-benzamide] gave a melting point of 257 to 258 °C. `COCc1cccc(-c2cnc3[nH]cc(C(=O)C(C)(C)C)c3n2)c1` [Example I-130, 1-[2-(3-Methoxymethyl-phenyl)-5H-pyrrolo[2,3-b]pyrazin-7-yl]-2,2-dimethyl-propan-1-one] had a melting point of 143 to 144 °C. For the compound `COCc1ccc(-c2cnc3[nH]cc(C(=O)C(C)(C)C)c3n2)cc1` [Example I-132, 1-[2-(4-Methoxymethyl-phenyl)-5H-pyrrolo[2,3-b]pyrazin-7-yl]-2,2-dimethyl-propan-1-one], the melting point was 191 to 192 °C. For the compound `COc1ccccc1-c1cnc2[nH]cc(C(=O)C(C)(C)C)c2n1` [Example I-133, 1-[2-(2-Methoxy-phenyl)-5H-pyrrolo[2,3-b]pyrazin-7-yl]-2,2-dimethyl-propan-1-one], the melting point fell in the range of 199.5 to 200.7 °C. In the case of `COc1cccc(-c2cnc3[nH]cc(C(=O)C(C)(C)C)c3n2)c1` [Example I-134, 1-[2-(3-Methoxy-phenyl)-5H-pyrrolo[2,3-b]pyrazin-7-yl]-2,2-dimethyl-propan-1-one] it was 197.4 to 198.8 °C; in that of `CC(C)(C)C(=O)c1c[nH]c2ncc(-c3cccc(C(=O)NC4CCCC4)c3)nc12` [Example I-136, N-Cyclopentyl-3-[7-(2,2-dimethyl-propionyl)-5H-pyrrolo[2,3-b]pyrazin-2-yl]-benzamide], 227 to 228.5 °C; in that of `CC(C)(C)C(=O)c1c[nH]c2ncc(-c3cccc(O)c3)nc12` [Example I-141, 1-[2-(3-Hydroxy-phenyl)-5H-pyrrolo[2,3-b]pyrazin-7-yl]-2,2-dimethyl-propan-1-one], 267 to 268 °C. Regarding `COCOc1cc(-c2cnc3[nH]cc(C(=O)C(C)(C)C)c3n2)cc(N2CCCC2)c1` [Example I-151, 1-[2-(3-Methoxymethoxy-5-pyrrolidin-1-yl-phenyl)-5H-pyrrolo[2,3-b]pyrazin-7-yl]-2,2-dimethyl-propan-1-one], the melting point fell in the range of 229 to 230 °C. For `CC(C)Oc1cc(-c2cnc3[nH]cc(C(=O)C(C)(C)C)c3n2)cc(N2CCCC2)c1` [Example I-152, 1-[2-(3-Isopropoxy-5-pyrrolidin-1-yl-phenyl)-5H-pyrrolo[2,3-b]pyrazin-7-yl]-2,2-dimethyl-propan-1-one], the melting point was 233 to 235 °C. In the case of `COc1cc(-c2cnc3[nH]cc(C(=O)C4(C)CCCCC4)c3n2)cc(N2CCSCC2)c1` [Example I-155, [2-(3-Methoxy-5-thiomorpholin-4-yl-phenyl)-5H-pyrrolo[2,3-b]pyrazin-7-yl]-(1-methyl-cyclohexyl)-methanone] it was 212 to 214 °C; in that of `CC(C)(C)C(=O)c1c[nH]c2ncc(-c3cccc(N4CCC5(CCSC5)C4)c3)nc12` (centres unmarked) [Example I-168, 2,2-Dimethyl-1-{2-[3-(2-thia-7-aza-spiro[4.4]non-7-yl)-phenyl]-5H-pyrrolo[2,3-b]pyrazin-7-yl}-propan-1-one], 239 to 241 °C. To `COc1ccc(COc2cccc(-c3cnc4[nH]cc(C(=O)NC(C)C)c4n3)c2)cc1` [Example I-229, 2-[3-(4-Methoxy-benzyloxy)-phenyl]-5H-pyrrolo[2,3-b]pyrazine-7-carboxylic acid isopropylamide] belongs 215 to 216 °C.

`COCC1CCCN1c1cccc(-c2cnc3[nH]cc(C(=O)NC(C)C)c3n2)c1` (centres unmarked) [Example I-230, 2-[3-(2-Methoxymethyl-pyrrolidin-1-yl)-phenyl]-5H-pyrrolo[2,3-b]pyrazine-7-carboxylic acid isopropylamide]: the melting point was 187 to 190 °C.

In turn, `Cc1nnc(-c2cccc(-c3cnc4[nH]cc(C(=O)C(C)(C)C)c4n3)c2)o1` [Example I-325, 2,2-Dimethyl-1-{2-[3-(5-methyl-[1,3,4]oxadiazol-2-yl)-phenyl]-5H-pyrrolo[2,3-b]pyrazin-7-yl}-propan-1-one] showed a melting point of 260.9 to 264.4 °C. `Cc1cc(-c2cnc3[nH]cc(C(=O)C(C)(C)C)c3n2)cc(C(C)(C)C)c1` [Example I-334, 1-[2-(3-tert-Butyl-5-methyl-phenyl)-5H-pyrrolo[2,3-b]pyrazin-7-yl]-2,2-dimethyl-propan-1-one]: the melting point was in the range of 234.9 to 236.1 °C.

`CC(C)(C)C(=O)c1c[nH]c2ncc(-c3cccc(-c4ccccc4)c3)nc12` [Example I-335, 1-(2-Biphenyl-3-yl-5H-pyrrolo[2,3-b]pyrazin-7-yl)-2,2-dimethyl-propan-1-one]: the melting point is 219.9 to 221.1 °C. In turn, `CC(C)(C)OCc1cccc(-c2cnc3[nH]cc(C(=O)C(C)(C)C)c3n2)c1` [Example I-336, 1-[2-(3-tert-Butoxymethyl-phenyl)-5H-pyrrolo[2,3-b]pyrazin-7-yl]-2,2-dimethyl-propan-1-one] yielded a melting point of 202 to 203 °C.

For the compound `CC(C)c1cccc(-c2cnc3[nH]cc(C(=O)C(C)(C)C)c3n2)c1` [Example I-337, 1-[2-(3-Isopropyl-phenyl)-5H-pyrrolo[2,3-b]pyrazin-7-yl]-2,2-dimethyl-propan-1-one], the melting point is 197 to 198 °C. To `CC(C)(C)C(=O)c1c[nH]c2ncc(-c3ccc(F)c(Cl)c3)nc12` [Example I-341, 1-[2-(3-Chloro-4-fluoro-phenyl)-5H-pyrrolo[2,3-b]pyrazin-7-yl]-2,2-dimethyl-propan-1-one] belongs 233 to 234 °C; to `CC(C)(C)C(=O)c1c[nH]c2ncc(-c3cccc(-c4cnc[nH]4)c3)nc12` [Example I-346, 1-{2-[3-(3H-Imidazol-4-yl)-phenyl]-5H-pyrrolo[2,3-b]pyrazin-7-yl}-2,2-dimethyl-propan-1-one], 287 to 288 °C. To `CC(C)(C)C(=O)c1c[nH]c2ncc(-c3cccc(C4=CCCCC4)c3)nc12` [Example I-352, 1-[2-(3-Cyclohex-1-enyl-phenyl)-5H-pyrrolo[2,3-b]pyrazin-7-yl]-2,2-dimethyl-propan-1-one] belongs 188 to 190 °C. For the compound `CC(C)(C)C(=O)c1c[nH]c2ncc(-c3ccc(-c4ccccc4)cc3)nc12` [Example I-355, 1-(2-Biphenyl-4-yl-5H-pyrrolo[2,3-b]pyrazin-7-yl)-2,2-dimethyl-propan-1-one], the melting point fell in the range of 275 to 277 °C. Turning to `Cc1nnc(-c2ccc(-c3cnc4[nH]cc(C(=O)C(C)(C)C)c4n3)cc2)o1` [Example I-357, 2,2-Dimethyl-1-{2-[4-(5-methyl-[1,3,4]oxadiazol-2-yl)-phenyl]-5H-pyrrolo[2,3-b]pyrazin-7-yl}-propan-1-one], the melting point was > 300 °C. In the case of `CC(C)(C)C(=O)c1c[nH]c2ncc(-c3ccc(OCCN4CCCCC4)cc3)nc12` [Example I-363, 2,2-Dimethyl-1-{2-[4-(2-piperidin-1-yl-ethoxy)-phenyl]-5H-pyrrolo[2,3-b]pyrazin-7-yl}-propan-1-one] it was 207 to 208 °C; in that of `CCNC(=O)c1cccc(-c2cnc3[nH]cc(C(=O)C(C)(C)C)c3n2)c1` [Example I-365, 3-[7-(2,2-Dimethyl-propionyl)-5H-pyrrolo[2,3-b]pyrazin-2-yl]-N-ethyl-benzamide], 232 to 233 °C. `CC1(C(=O)c2c[nH]c3ncc(-c4ccc(OCCN5CCCCC5)cc4)nc23)CCCCC1` [Example I-368, (1-Methyl-cyclohexyl)-{2-[4-(2-piperidin-1-yl-ethoxy)-phenyl]-5H-pyrrolo[2,3-b]pyrazin-7-yl}-methanone] showed a melting point of 180 to 182 °C. `CC(C)(C)C(=O)c1c[nH]c2ncc(-c3cccc(-c4cn[nH]c4)c3)nc12` [Example I-369, 2,2-Dimethyl-1-{2-[3-(1H-pyrazol-4-yl)-phenyl]-5H-pyrrolo[2,3-b]pyrazin-7-yl}-propan-1-one]: the melting point was > 300 °C.
